Consider 80 molecules from the METLIN SMRT retention time set (Domingo-Almenara et al. 2019).

The nature of this data set: gradient 5% acetonitrile 3 min, to 50% in 2 min, to 85% in 15 min, held 3 min, 100 µL/min. As to conditions: column: Zorbax Extend-C18 2.1 x 50 mm; eluents: water / acetonitrile, 0.1% formic acid. The essentials:
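Values are retention times taken from adduct peaks that software picked and an analyst inspected. The pure standards were run as mixtures of ~100 molecules on HPLC linked to a quadrupole time-of-flight mass spectrometer, in positive and negative ionization mode. A Zorbax Extend-C18 column (2.1 × 50 mm, 1.8 μm) was used at 100 μL/min with water and acetonitrile, each including 0.1% formic acid.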
The molecule `COc1ccc(OC)c(S(=O)(=O)N2CCC(n3c(C)cnc3C)CC2)c1` had an RP-LC retention time of 630 s.

Regarding `Cc1[nH]c2ccc(C(=O)NC3CCCC3)cc2c1C`, the RP-LC retention time came out at 650 s.

`COc1cccc(C2=NN(C(C)=O)C(c3ccc(Br)cc3)O2)c1OC(C)=O` (stereo not given) showed an RP-LC retention time of 1040 s.

Molecule `CCC(C)NC(=O)NC1CCN(C2=NS(=O)(=O)C(c3cccc(Cl)c3)=C2C)CC1` (stereo not given) registered an RP-LC retention time of 814 s.

`Cc1ccc(S(=O)(=O)N2CCC(n3c(-c4ccoc4)nc4cccnc43)C2)cc1F` (stereo not given): the RP-LC retention time is 910 s.

`COCCNc1c(-c2ccccc2)nc2sc(C(=O)N3CCN(C)CC3)c(C)n12` yielded an RP-LC retention time of 601 s.

`O=C(NCc1cccc(C(F)(F)F)c1)C1CCN(c2ccc(SCc3ccccc3)nn2)CC1` showed an RP-LC retention time of 871 s.

Consider `CCn1cc2c3c(cccc31)CN(C(=O)Nc1cccc(Cl)c1F)CC2`, for which the RP-LC retention time was 1060 s.

In the case of `Cn1nccc1C(=O)NCc1ccc(-c2nc(-c3ccccc3)no2)s1`, the RP-LC retention time was 932 s.

With `COc1ccc(-c2nc(-c3ccc4c(c3)ncn4CCN3CCCCC3)no2)cc1OC`, the RP-LC retention time stood at 630 s.

`CN(CC1CCCO1)C1CCN(C(=O)C2CCN(c3ccc(-c4cccs4)nn3)CC2)CC1` (stereo not given): the RP-LC retention time came to 567 s.

`CCOc1ccccc1N1CCN(S(=O)(=O)c2nn(C)cc2C(=O)NC2CCCC2)CC1` yielded an RP-LC retention time of 1030 s.

In turn, `COCCNc1c(-c2ccccc2)nc2sc(C(=O)N3CCOCC3)c(C)n12` gave an RP-LC retention time of 722 s.

Regarding `Cc1ccc(CSc2nc(CC(=O)Nc3ccc(-n4cnnn4)cc3)cs2)cc1`, the RP-LC retention time worked out at 868 s.

Take `COc1ccc(C)cc1NC(=O)CCC1CCN(c2cc(NC3CC3)ncn2)CC1`: the RP-LC retention time turned out to be 712 s.

In the case of `CCCn1cc(S(=O)(=O)CC(=O)Nc2ccc(C(=O)OCC)cc2)c2ccccc21`, the RP-LC retention time amounted to 890 s.

With `O=C(Nc1ccccc1)C1CCCN(S(=O)(=O)Cc2ccccc2)C1` (stereo not given), the RP-LC retention time came to 940 s.

The molecule `NC(=O)c1ccc(NC(=O)c2sc3ncccc3c2-n2cccc2)cc1` showed an RP-LC retention time of 728 s.

In the case of `Cc1ccc(NC(=O)N2CCN(CCn3c(C(F)(F)F)nc4cccnc43)CC2)cc1`, the RP-LC retention time was 648 s.

Turning to `CC(C)n1c(N2CCN(C(=O)c3cccs3)CC2)cc(=O)n(C(C)C)c1=O`, the RP-LC retention time came to 812 s.

As for `Cc1ccccc1-c1nc(C2CCN(S(=O)(=O)c3ccccc3F)CC2)no1`, the RP-LC retention time came out at 1150 s.

`Cc1oc2ncn(CCC(=O)N3CCN(c4ccccn4)CC3)c(=O)c2c1C` returned an RP-LC retention time of 573 s.

The molecule `CCOC(=O)C1C(=O)NC(SC)=C(C#N)C1c1ccccc1[N+](=O)[O-]` (stereo not given) registered an RP-LC retention time of 778 s.

`O=C(CSc1nnc(-c2ccccc2F)o1)Nc1nccs1` came in with an RP-LC retention time of 691 s.

In the case of `CC(C)Oc1ccc(-c2noc(CN3C(=O)C(C)Oc4ccccc43)n2)cc1` (stereo not given), the RP-LC retention time is 1200 s.

As for `COc1ccc(CC(=O)NCCc2c[nH]c3ccc(Cl)cc23)cc1`, the RP-LC retention time came out at 848 s.

With `O=C(/C=C/c1ccccc1)NC(NC(=S)Nc1ccc(Cl)cc1)C(Cl)(Cl)Cl` (stereo not given), the RP-LC retention time came to 1030 s.

For the molecule `CCCNC(=O)N1CCCC1c1nc(-c2cccc(C(F)(F)F)c2)no1` (stereo not given), the RP-LC retention time stood at 963 s.

Molecule `COCC(C)(O)CNS(=O)(=O)c1ccc(F)cc1C` (stereo not given) came in with an RP-LC retention time of 674 s.

Regarding `COc1cc(NC(=O)Cn2cnc3c(sc4nc(-c5ccccc5)ccc43)c2=O)cc(OC)c1`, the RP-LC retention time came to 996 s.

Take `CCCCCn1c(=O)c2ccccc2n(Cc2nc(-c3ccc4c(c3)OCO4)no2)c1=O`: the RP-LC retention time was 1180 s.

Consider `CCCNc1cc(N2CCC(CCC(=O)NCc3ccc(F)cc3F)CC2)ncn1`, for which the RP-LC retention time is 694 s.

`CCOC(=O)N1CCN(S(=O)(=O)c2ccc(C(=O)Nc3cccc(C)n3)cc2)CC1` showed an RP-LC retention time of 721 s.

In turn, `CC(C)NC(=O)N(CC(=O)N1CCc2sccc2C1COc1cccc(F)c1)C1CC1` (stereo not given) yielded an RP-LC retention time of 942 s.

Turning to `CCOC(=O)c1cc2ccsc2n1CC(=O)Nc1ccc(F)c(F)c1`, the RP-LC retention time stood at 1020 s.

`O=C(Nc1ccsc1-c1nnc(C2CC2)o1)c1cccs1` registered an RP-LC retention time of 1160 s.

`CCn1ncn2cc(S(=O)(=O)Nc3ccccc3C)cc2c1=O`: the RP-LC retention time came out at 863 s.

In turn, `Cc1nn(Cc2ccc(C(=O)NC(C)C)cc2)c(C)c1S(=O)(=O)N1CCC(C)CC1` yielded an RP-LC retention time of 880 s.

Consider `O=C(Cn1c(=O)cc(-c2nc(C3CC3)no2)c2ccccc21)Nc1ccc(F)cc1`, for which the RP-LC retention time was found to be 616 s.

Molecule `CCCn1cnc2cc(-c3noc(C(C)NC(=O)c4ccco4)n3)ccc21` (stereo not given) yielded an RP-LC retention time of 629 s.

Molecule `O=C(Cc1csc(SCc2ccc(Br)cc2)n1)NCc1cccs1` had an RP-LC retention time of 978 s.

`O=C(c1ccsc1)N1CCC(Cc2nnc(-c3ccccc3)o2)CC1` yielded an RP-LC retention time of 774 s.

For `Cc1cccc(OCc2nc(-c3ccc(-c4csc(C)n4)cc3)no2)c1`, the RP-LC retention time was found to be 1250 s.

Turning to `Cc1nc2cc(N3CCCC(C(=O)NCc4cccs4)C3)cnc2nc1C` (stereo not given), the RP-LC retention time amounted to 687 s.

The molecule `COCCNC(=O)C1CCCN(C(=O)c2cccc(C(F)(F)F)c2)C1` (stereo not given) yielded an RP-LC retention time of 693 s.

In turn, `Cc1cc(C)cc(Nc2nc(C)cc3nn(CC(=O)N(C)c4ccccc4)c(=O)n23)c1` had an RP-LC retention time of 1160 s.

Molecule `O=C1OC(=O)C2C3CCC(O3)C12` (stereo not given) showed an RP-LC retention time of 559 s.

In turn, `Cc1ccc([N+](=O)[O-])cc1NC(=O)Nc1ccc(S(N)(=O)=O)cc1` had an RP-LC retention time of 786 s.

For the molecule `O=C(Nc1ccc2c(c1)CCCN2S(=O)(=O)c1ccccc1)OCc1ccccc1`, the RP-LC retention time amounted to 949 s.

As for `CCn1cc(-c2ccc(Cl)cc2)cc1C(=O)N1CCCCC1`, the RP-LC retention time came to 1150 s.

`CC(C)CC(=O)N1CCC(CC(=O)N2CCOCC2)C1` (stereo not given) showed an RP-LC retention time of 622 s.

`O=C(Nc1ccccc1)N1CCc2nnc(C3CC3)n2CC1` came in with an RP-LC retention time of 596 s.

`CCNC(=O)Nc1ccc2c(c1)CN(S(=O)(=O)c1cn(C)cn1)CCO2` had an RP-LC retention time of 625 s.

With `COc1ccc2c(c1)C1(CCN(C(=O)CC(C)(C)C)C1)C(=O)N2C` (stereo not given), the RP-LC retention time came out at 782 s.

In turn, `CCOc1cc(-c2ccccc2)nc2ccc(NC(=O)NCC(=O)OC)cc12` came in with an RP-LC retention time of 651 s.

The molecule `Cc1cc(C(=O)N2CC(F)(F)C[C@H]2c2nc(C3CC3)no2)on1` yielded an RP-LC retention time of 809 s.

For `CCOc1ccc(NC(=O)c2cc3c(=O)n(CC(C)C)c4ccccc4n3n2)cc1`, the RP-LC retention time stood at 1150 s.

`CCC(NC(=O)c1cn2cc(C)ccc2n1)c1ccc(OC)cc1` (stereo not given) gave an RP-LC retention time of 697 s.

Molecule `CCOc1ccc(-c2noc(Cc3nnc(-c4ccc(C)c(C)c4)o3)n2)cc1` returned an RP-LC retention time of 1200 s.

In turn, `CCOC(=O)c1ccc(NC(=O)c2cc(C)nn2-c2ccccc2)cc1` showed an RP-LC retention time of 937 s.

In turn, `Cc1ccn2c(NC(=O)c3ccc([N+](=O)[O-])cc3)c(-c3ccc(F)cc3)nc2c1` yielded an RP-LC retention time of 684 s.

On to `O=C(NCc1cccc(F)c1)c1ccc(-c2ccsc2)nc1`, for which the RP-LC retention time turned out to be 871 s.

In turn, `Cn1cnc2ccc(-c3noc(-c4cccs4)n3)cc21` displayed an RP-LC retention time of 685 s.

With `O=S(=O)(c1ccc2nc(N3CCN(c4cccc(Cl)c4)CC3)ccc2c1)N1CCCCC1`, the RP-LC retention time came to 1240 s.

For `Cc1cc2c(cc1S(=O)(=O)N1CCCC1C(=O)Nc1cccc(Cl)c1C)OC(C)C(=O)N2` (stereo not given), the RP-LC retention time came out at 891 s.

In turn, `Cc1ccc2nc(-c3cccnc3)cc(C(=O)Nc3nc(-c4ccccc4)c(C)s3)c2c1` registered an RP-LC retention time of 1070 s.

`Cc1cc(C)c2c(N3CCCC3)nc(C(=O)N3CCN(c4ccccn4)CC3)nc2n1` displayed an RP-LC retention time of 1080 s.

For the molecule `Cc1ccnn1-c1ccc(SCC(=O)Nc2ccccc2F)nn1`, the RP-LC retention time was 869 s.

As for `CCC(C)n1nnc2cc(S(=O)(=O)N(C)CC(=O)NCCc3c[nH]c4ccccc34)ccc21` (stereo not given), the RP-LC retention time came to 885 s.

For `COc1ccc2c(c1)C1(CCN(C(=O)c3ccc(OC)c(OC)c3)C1)C(=O)N2` (stereo not given), the RP-LC retention time stood at 674 s.

For the molecule `CCn1ccc2c(cc(C(=O)Nc3ccc(F)cc3)n2C)c1=O`, the RP-LC retention time stood at 754 s.

As to `CCN1C(=O)C2(CCN(C(=O)C3CC3)CC2)c2ccccc21`, the RP-LC retention time is 779 s.

As to `COCCc1noc(C2CN(S(=O)(=O)c3ccc(C#N)cc3)C2)n1`, the RP-LC retention time came to 768 s.

In turn, `Cn1nc(CNC(=O)c2ccc3c(c2)OCO3)c2ccccc21` came in with an RP-LC retention time of 760 s.

Regarding `Cn1cc(CN2CCN(C(=O)C3CCN(S(=O)(=O)N4CCCC4)CC3)CC2)c2ccccc21`, the RP-LC retention time turned out to be 655 s.

In the case of `CCn1c(CCc2ccccc2NS(=O)(=O)c2cc(F)ccc2F)nc2ccccc21`, the RP-LC retention time was 764 s.

On to `CCCC(=O)Nc1cnc(-c2ccc(Cl)cc2)nc1`, for which the RP-LC retention time amounted to 958 s.

`CSc1nc2ccc3nc(NC(=O)c4cc(C)no4)sc3c2s1` displayed an RP-LC retention time of 1010 s.

On to `Cc1c(-c2nnc(C(=O)NCCCN3CCCC3)o2)oc2c(C)cccc12`, for which the RP-LC retention time turned out to be 688 s.

The molecule `Cc1cc(C)n(CC(=O)NC(C)c2ccccc2)c1-c1nc(C2CC2)no1` (stereo not given) had an RP-LC retention time of 914 s.
